Measured values reported in patent US20190022198A1, “Individualized Immunomodulation Therapy for Neurodegenerative Disorders, CNS Injury and Age-Related Dementia” (Yeda Research and Development Co. Ltd., priority 2012, published 2019).

What was measured:
WT mice = assay type: in vivo, mouse
WT, mSOD and 5XFAD mice = experiment: Active immunization with MOG and monitoring Tregs and Th1 cells in the blood (Example 19); assay type: in vivo, mouse
Experimental: 200 μg of MOG35-55 (GL Biochem Ltd., Shanghai) are emulsified in 200 μl […] Freund's adjuvant (IFA) containing 0.5 mg/ml M. tuberculosis (strain H37Ra; BD Diagnostics), and 200 μl is injected subcutaneously to three groups of mice: WT, mSOD and 5XFAD. Control mice for each group are injected subcutaneously with PBS. At days 7, 14 and 28 post immunization, the mice are anesthetized, blood is collected into heparin containing tubes and […] of each sample are treated with ACK lysing buffer (Life Technologies) to remove erythrocytes. For intracellular staining of IFN-γ (corresponding to Th1 cells) the cells are incubated with PMA (10 ng/ml; Sigma-Aldrich) and ionomycin (250 ng/ml; Sigma-Aldrich) for 6 h, and Brefeldin-A ([…]; Sigma-Aldrich) was added for the last 4 h. Intracellular labeling is done with BD Cytofix/Cytoperm Plus Fixation/Permeabilization kit (cat. no. 555028) according to the manufacturer's protocol. For intracellular staining of Foxp3^+ T regulatory cells (Tregs), the cells are stained according to manufacturer's protocol (Mouse Regulatory T Cell Staining Kit, eBioscience, cat. No. 88-8111-40). […] Flow cytometry analysis is performed on each sample using a BD Biosciences LSRII flow cytometer, and the acquired data is analyzed using FlowJo software (Tree star). The ratio between Tregs and Th1 cells is calculated for each sample.

mSOD1 mice = experiment: MOG immunization of mSOD1 mice: EAE symptoms, CP trafficking molecules, leukocytes in CSF and spinal cord, survival; assay type: in vivo, mouse
cultured CP cells = experiment: Immunocytochemistry of cultured CP cells treated with cytokines; assay type: cell-based, mouse; conditions: cultured cells following TNF-α treatment (data not shown)
Experimental: For whole mount staining of the choroid plexus, isolated tissues were fixed with 2.5% paraformaldehyde (PFA) for several hours, and subsequently transferred to PBS containing 0.05% sodium azide. Prior to staining, the dissected tissues were washed and blocked (20% horse serum, 0.3% Triton X-100, and PBS) for 1 h at room temperature with shaking. Whole mount staining with primary (in PBS containing 2% horse serum and 0.3% Triton X-100) and secondary antibodies (in PBS), was performed for 1h at room temperature, with shaking. Each step was followed by three washes in PBS. The tissues were mounted onto slides, using Immu-mount (9990402, from Thermo), and sealed with cover-slips. For staining of sectioned brains, two different tissue preparation protocols (paraffin embedded and microtomed frozen sections) were applied, as previously described (Ziv Y et al (2006b)). For immunocytochemistry, CP cells were isolated as described above and were grown on PLL coated cover slips for 7 days, replacing the medium every 3 days. Cytokines were added for the last 3 days of culture. Following 7 days of culture, the wells were washed with PBS and the cells were fixed either with 2.5% paraformaldehyde for 30 min or methanol-acetone (1:1) for 10 min at −20° C., following by 2 washing steps with PBS. For CCL11 staining, cells were treated with Brefeldin-A 2 hours prior to fixation in order to arrest protein secretion. The cover slips of the cultured CP cells were incubated with the indicated antibodies and mounted with Glycerol Vinyl Alcohol (GVA) mounting solution (Invitrogen). The following primary antibodies were used: rat anti-CD3 (Abcam); rat anti-ICAM-1 (1:100; Abcam), chicken anti-vimentin (1:500, Millipore), rabbit anti-Iba1 (1:300; Wako), goat anti-IL-10 (1:20; R&D), mouse anti-MHC-II (Abcam); mouse anti-Arginase-1 (BD Biosciences); mouse anti-Cytokeratin (Covance); rat anti-CCL11 (R&D Systems); rabbit anti-ZO-1 (Invitrogen); and rabbit anti-Claudin-1 (Invitrogen). Secondary antibodies included: Cy2/Cy3-conjugated donkey anti-rat, mouse or rabbit antibody and Cy3 conjugated donkey anti-mouse, goat, rat, chicken or rabbit (1:200; all from Jackson Immuno Research). The slides were exposed to Hoechst stain (1:2000; Invitrogen) for 1 min. Two negative controls were routinely used in immunostaining procedures, staining with isotype control antibody followed by secondary antibody, and staining with secondary antibody alone. For morphological quantification, average cross-sectional area of epithelial cells was measured following Nissl staining. Cell borders (20-25 cells per picture) were marked and the area was quantified using Image-Pro Plus software in a blinded fashion.

CP epithelial cells = experiment: Primary culture of choroid plexus cells treated with cytokines, mRNA by real-time qPCR; assay type: cell-based, mouse; conditions: TNF-α 100 ng/ml
Experimental: Mice were perfused from the left ventricle of the heart with PBS, and their CPs were removed under a dissecting microscope (Stemi DV4; Zeiss) in PBS into tubes containing 0.25% trypsin, and kept on ice. The tubes were shaken for 20 minutes at 37° C. and the tissue was dissociated by pipetting. The cell suspension was washed in culture medium for epithelial cells (DMEM/HAM's F12 (Invitrogen Corp)) supplemented with 10% FCS (Sigma-Aldrich), 1 mM 1-glutamine, 1 mM sodium pyruvate, 100 U/ml penicillin, […] streptomycin, 5 μg/ml Insulin, 20 μM Ara-C, 5 ng/ml sodium selenite, 10 ng/ml EGF, and cultured (˜250,000 cells/well) at 37° C., 5% CO2 in 24-well plates (Corning Incorporated) coated with poly-L-lysine (PLL; Sigma-Aldrich). After 24 hours, the medium was changed, and the cells were either left untreated, or treated with the indicated cytokines (all purchased from PeproTech): IFN-γ, IL-4, IL-10, IL-17A, GM-CSF, IL-6, IL-1β or TNF-α or their combinations for 24 h. Cell viability was quantified by Trypan blue staining after detachment of the cells with 0.25% trypsin for 10 minutes at 37° C. Neutralizing antibodies to TNF-R1 or TNF-R2 ([…], BioLegend) were added 1 h prior to the addition of TNF-α (100 ng/ml). RNA was isolated using the ZR RNA microprep kit (Zymo Research) according to the manufacturer's protocol.
Total RNA of the hippocampus was extracted with TRI reagent (MRC, Cincinnati, Ohio) and was purified from the lysates and spinal cord using the RNeasy kit (Qiagen, Hilden, Germany). Total RNA of the choroid plexus was extracted using the RNA MicroPrep kit (Zymo Research). mRNA (1 μg) was converted to cDNA using High Capacity cDNA Reverse Transcription Kit (Applied Biosystems). The expression of specific mRNAs was assayed using fluorescence based real-time quantitative PCR (qPCR). qPCR reactions were performed using Power SYBR Green PCR Master Mix (Applied Biosystems). Quantification reactions were performed in triplicates for each sample using the standard curve method. Glyceraldehyde 3-phosphate dehydrogenase (GAPDH), Peptidylprolyl isomerase A (PPIA), and hypoxanthine guanine phosphoribosyltransferase (HPRT) were chosen as reference genes according to their stability in the target tissue. The amplification cycles were 95° C. for 5 sec, 60° C. for 20 sec, and 72° C. for 15 sec. At the end of the assay, a melting curve was constructed to evaluate the specificity of the reaction. For some genes, the cDNA was pre-amplified in 14 PCR cycles with non-random PCR primers, thus increasing the sensitivity of the subsequent real-time PCR analysis (PreAmp Master Mix Kit, Applied Biosystems). For these genes, expression was determined using TaqMan Real-Time PCR, according to manufacturer's instructions (Applied Biosystems). All quantitative real-time PCR reactions were performed and analyzed using the 7500 Real-Time PCR System (Applied Biosystems). The following TaqMan probes were used: Mm02342430_g1 (ppia), Mm00446968_m1 (hprt), Mm00445260_m1 (il-4), Mm01168134_m1 (ifn-γ), Mm00441238_m1 (ccl11), Mm00475988_m1 (arg-1). In addition, the following primers were used: […]

CP cells = experiment: Transepithelial migration assay of CD115+ monocytes across CP cells towards CCL2; assay type: cell-based, mouse; conditions: TNF-α in combination with IFN-γ (data not shown)
Experimental: For transepithelial migration assay, CP cells were isolated as above and plated on 5-μm pore size, 6.5 mm diameter polycarbonate filters in 24-well Transwell chambers (Costar, Corning) and grown for 7 days. The medium of the upper chamber was then replaced with 100 μl of freshly isolated CD115^+ monocytes (1.5×10^6 cells/ml in RPMI 1640 supplemented with 0.5% BSA) and the inserts were transferred to new wells containing RPMI 1640 supplemented with 0.5% BSA and 100 ng/ml CCL2 (PeproTech). The Transwells were then incubated at 37° C., 5% CO2. After 24 h the migrating cells at the lower chamber were removed using cell scraper and CD11b^+ cells were quantified by flow cytometry.
CD115^+ monocytes were isolated as previously reported (Shechter et al., 2009). Briefly, BM cells were harvested from the femur and tibiae of naïve mice, and enriched for mononuclear cells on a Ficoll density gradient. The CD115^+ BM monocyte population was isolated by MACS enrichment using biotinylated anti-CD115 antibodies and streptavidin-coupled magnetic beads (Miltenyi Biotec) according to the manufacturer's protocols. Monocyte purity was checked by flow cytometry based on CD11b reactivity and was 90%.

MOG35-55 (MEVGWYRSPFSRVVHLYRNGK; emulsified in adjuvant) [emulsified in incomplete Freund's adjuvant containing 0.5 mg/ml M. tuberculosis]
infiltrating T cells in the CSF (WT mice; 14 days post immunization, relative to naïve or OVA-immunized mice): increase of infiltrating T cells | expression of ICAM-1 by the CP epithelium (WT mice; mouse, in vivo): induced the expression of ICAM-1 | ratio of Tregs to Th1 cells in blood (WT, mSOD and 5XFAD mice; 7 or 14 days following immunization, versus control group): lower | ratio of Tregs to Th1 cells in blood (WT, mSOD and 5XFAD mice; 28 days following immunization, relative to 7 or 14 days): increase | total leukocyte numbers, including T cells and CD4+ T cells, in the CSF (mSOD1 mice; 14 days post immunization): increase in total leukocyte numbers | expression of trafficking molecules (ICAM-1, CCL5, CXCL9, CXCL10) in the CP (mSOD1 mice; 14 days post immunization, compared to non-immunized mice): significant increase in the expression of trafficking molecules | CD4+ T cell numbers in the spinal cord parenchyma (mSOD1 mice; 28 days post immunization): remained elevated | local expression of IL-10 in the spinal cord (mSOD1 mice; 28 days post immunization): increased local expression of IL-10 | spatial distribution of infiltrating T cells (mSOD1 mice; 28 days post immunization, immunized mSOD1 mice (data not shown)): T cells were found in the gray matter of the spinal cord ventral horn | lifespan compared to PBS injected mice (mSOD1 mice; average survival age and Kaplan-Meier curves, logrank p=0.024): significantly longer lifespan | Foxp3+ Tregs in the CSF (mSOD1 mice; day 28 post immunization): significant elevation of Tregs | Foxp3+ Tregs in the spinal cord parenchyma (mSOD1 mice; day 28 post immunization): significant elevation of Tregs | mice still alive at the age of 154 days (mSOD1 mice; immunized mSOD1 mice): 90% | average survival (mSOD1 mice; immunized mSOD1 mice, n=10 per group): 159.5 ± 2.2 days | increased average survival (mSOD1 mice; immunized versus untreated mSOD1 mice): 15 days | CD4+ T cells in the spinal cord parenchyma (mSOD1 mice; mouse, in vivo): increased infiltration of CD4^+ T cells | expression of TGF-β1 in the spinal cord parenchyma (mSOD1 mice; mouse, in vivo): elevated

TNF-α
IFN-γR immunostaining (cultured CP cells): elevation of IFN-γR | expression of IFN-γ-receptor (IFN-γR) mRNA (CP epithelial cells; CP epithelial cells, 24 h, IL-1β 100 ng/ml, IL-6 10 ng/ml): elevated the expression of IFN-γ-receptor | MADCAM-1 expression (CP epithelial cells; cultured CP cells, 24 hours, IFN-γ independent): upregulated | monocyte trafficking through the CP towards CCL2 (CP cells): stimulated the CP to mediate monocyte trafficking towards CCL2
